Where two headings read alike, the source gives them in different places.
Biological target: HIV-1 gp41 core structure (six-helix bundle) formation (Human immunodeficiency virus type 1 group M subtype B, UniProt P04578)
Protocol: Two days following transfection, intact 293T cells transiently expressing the HIV-1 HXB2 envelope are incubated in the presence of the test compound. At the end of 1 h, 2 μg of soluble CD4 (sCD4) or a cell line expressing CD4 is added. At the end of an additional 1 h, the monoclonal antibody against the six-helix bundle structure is added at a concentration of 10 μg/ml and the mixture is allowed to incubate at 25° C. for 3 hr. Following this incubation the cells are washed 4 times with PBS and lysed with 1 ml lysis buffer (1% Triton X-100, 150 mM NaCl, and 50 mM Tris-Cl pH 7.4). […] Immunoprecipitated complexes are analyzed by 10% SDS-Page gel, transferred to nitrocellulose and immunoblotted with the anti-gp41 monoclonal antibody Chessie 8 (obtained from NIH AIDS Research and Reference Reagent Program) and detected by chemiluminescence and autoradiography.
The ability of the test compound to disrupt these critical conformational changes is assessed by characterizing the formation of the gp41 core structure. […]
The assay is a modified form of an immunoprecipitation (IP) assay and involves incubating the test compound with intact, virus-infected cells expressing the gp120/gp41 envelope complex on their surface. […] In these experiments the ability of a test compound to disrupt gp41 conformational changes was measured by determining its effect of core structure formation.

SMILES: C=C(C)[C@@H]1CC[C@]2(C(=O)O)CC[C@]3(C)[C@H](CC[C@@H]4[C@@]5(C)CC[C@H](OC(=O)CC(C)(C)C(=O)O)C(C)(C)[C@@H]5CC[C@]43C)[C@@H]12 [DSB, dimethylsuccinylbetulinic acid]
- amount of gp41 immunoprecipitated following sCD4 triggering (100 μg/ml DSB (FIG. 8 lane 3)): further reduced to a level nearly identical to that recovered in the absence of CD4 triggering
- amount of gp41 immunoprecipitated following sCD4 triggering (10 Mg/ml DSB (FIG. 8 lane 2) versus no test compound (lane 1)): significantly greater than the amount of gp41 immunoprecipitated in the presence of 10 Mg/ml DSB
